According to patent US10233209B2, “Inhibitors of the farnesoid x receptor and uses in medicine” (The United States of America, as represented by the …, priority 2013, dated 2019):

Columns and labels:
[1] = test system: high-fat diet-treated Fxr^fl/fl and Fxr^ΔIE mice; assay: body mass gain of tempol-treated mice on a high-fat diet; format: in vivo, mouse; details: high-fat diet 10 weeks
Excerpt: High-fat diet (HFD) (60% kcal consisting of fat) was purchased from Bioserv. […] Fxr^fl/fl and Fxr^ΔIE (Kim et al., J. Lipid Res. 48:2664-2672, 2007) mice were backcrossed with C57BL/6N mice for over 10 generations. For the antibiotic (the combination of bacitracin, neomycin, and streptomycin) study, male C57BL/6N mice from 6 weeks of age were fed a high-fat diet (“HFD) and administered 0.1% (w/v) of each compound (the combination of bacitracin, neomycin, and streptomycin) in the drinking water. […] For TβMCA in vivo, male C57BL/6N mice from 6 weeks of age were fed a HFD and treated with the antibiotics (0.1% of each compound of bacitracin, neomycin, and streptomycin combination) for 3 days. Vehicle (saline), TCA (400 mg/kg body weight, dissolved in saline) or a combination of TCA and TβMCA (400 mg/kg body weight of each compound, dissolved in saline) were orally administered to the mice and followed by a second dose 12 h later. The mice were killed 2 h later for tissue collection. For the Gly-MCA study, Gly-MCA was custom synthesized. […] Cumulative food intake and TEEbal were measured for 1 week in vehicle and Gly-MCA-treated mice from 6 to 7 weeks of HFD. TEEbal was measured as previously described (Ravussin et al., Int. J. Obesity 37:399-403, 2013). […]

[2] = test system: bile salt hydrolase (BSH); assay: fecal bile salt hydrolase activity; format: in vivo, mouse; details: tempol vs vehicle
Procedure: Fecal proteins were prepared from feces samples (0.5 g) in pH 7.4 phosphate buffered saline (PBS, 5.0 mL) using sonication. […] Briefly, incubation was carried out in 3 mM sodium acetate buffer, pH 5.2, containing 0.1 mg/ml fecal protein and 50 μM TCDCA-d5 in a final volume of 200 μL. After a 20 min incubation at 37° C., the reaction was stopped by plunging the samples into dry ice. 100 μL of acetonitrile was directly added to the reaction mix. After centrifuging at 14,000×g for 20 min, 5 μL of the supernatant was transferred to an auto sampler vial subjected to analysis by a UPLC system coupled with a XEVO triple quadrupole tandem mass spectrometer (Waters Corp., Milford, Mass.).

HFD-induced NAFLD model = assay: HFD-induced NAFLD model: liver histology, liver weight, triglycerides (tempol, antibiotic); format: in vivo, mouse
Excerpt: High-fat diet (HFD) (60% kcal consisting of fat) was purchased from Bioserv. […] Fxr^fl/fl and Fxr^ΔIE (Kim et al., J. Lipid Res. 48:2664-2672, 2007) mice were backcrossed with C57BL/6N mice for over 10 generations. For the antibiotic (the combination of bacitracin, neomycin, and streptomycin) study, male C57BL/6N mice from 6 weeks of age were fed a high-fat diet (“HFD) and administered 0.1% (w/v) of each compound (the combination of bacitracin, neomycin, and streptomycin) in the drinking water. […] For TβMCA in vivo, male C57BL/6N mice from 6 weeks of age were fed a HFD and treated with the antibiotics (0.1% of each compound of bacitracin, neomycin, and streptomycin combination) for 3 days. Vehicle (saline), TCA (400 mg/kg body weight, dissolved in saline) or a combination of TCA and TβMCA (400 mg/kg body weight of each compound, dissolved in saline) were orally administered to the mice and followed by a second dose 12 h later. The mice were killed 2 h later for tissue collection. For the Gly-MCA study, Gly-MCA was custom synthesized. Bacon-flavored dough pills were produced as described (Walker et al., Toxicol. Appl. Pharmacol. 260:65-69, 2012) for oral administration of Gly-MCA (0.25 mg Gly-MCA/pill, dose of 10 mg/kg). Mice were trained to eat the dough pills prior to the study. For the prevention of obesity, insulin resistance and NAFLD, male wild-type (WT) C57BL/6N mice, 6- to 8-weeks-old, were fed a high-fat diet (Bio-Serv, Frenchtown, N.J.; 60 kcal % fat) from the age of 6 weeks and were orally administered with vehicle (control pills) or Gly-MCA (0.25 mg/pill/day, dose 10 mg/kg). C57BL/6N mice fed a high-fat diet for 12 weeks were administered (0.25 mg Gly-MCA/pill, dose of 5 mg/kg). Leptin-deficient db/db mice, 6- to 8-weeks-old, fed a chow diet, were administered Gly-MCA (0.25 mg/pill/day, 10 mg/kg). Mice were housed individually in their home cages. Cumulative food intake and TEEbal were measured for 1 week in vehicle and Gly-MCA-treated mice from 6 to 7 weeks of HFD. TEEbal was measured as previously described (Ravussin et al., Int. J. Obesity 37:399-403, 2013).
Hematoxylin and eosin (H&E) staining were performed on formalin fixed paraffin embedded sections using a standard protocol. Oil red 0 staining was performed on frozen liver sections using a standard protocol. At least three discontinuous liver sections were evaluated for each mouse.
Hepatic lipids were extracted using a 2:1 chloroform-methanol solution. Liver triglycerides were measured with a triglyceride colorimetric assay kit, according to the manufacturer's recommendation (Bioassay Systems, Hayward, Calif.).

SREBP1c-CIDEA pathway = assay: liver mRNA and protein expression (qPCR, western blot); format: in vivo, mouse; details: for protein levels of mature nuclear SREBP1 and CIDEA in the liver: HFD 16 weeks
Procedure: (§1) The mucosa of intestine was gently scraped and liver was taken and both were flash frozen in liquid nitrogen and stored at −80° C. until RNA was prepared. RNA was extracted from frozen intestine and liver using TRIzol reagent (Invitrogen, Carlsbad, Calif.). cDNA was synthesized from 1 μg total RNA using Superscript II reverse transcriptase (Invitrogen, Carlsbad, Calif.). qPCR primers were designed with qPrimerDepot. Measured mRNA levels were normalized to those of 18S ribosomal RNA and expressed as fold change relative to those of control group.
(§2) Liver whole-cell or nuclear extracts were prepared. Membranes were incubated with antibodies against FXR (Santa Cruz Biotechnology, Inc., Santa Cruz, Calif.), SREBP1 (BD Biosciences, San Jose, Calif.), and CIDEA (Abcam, Cambridge, Mass.). The signals obtained were normalized to β-ACTIN (Abcam) for whole cell extract and LAMIN A/C (Santa Cruz) for nuclear extracts.

primary hepatocytes = assay: ceramide treatment of cultured primary hepatocytes; format: cell-based, mouse
Procedure: Primary hepatocytes from 6-week-old C57BL/6N mice were obtained by collagenase 1 (Invitrogen, Carlsbad, Calif.) perfusion. The cells were purified by 45% Percoll (Sigma, St. Louis, Mo.) density centrifugation and cultured in DMEM (Invitrogen, Carlsbad, Calif.) with 10% fetal bovine serum and 1% Insulin-Transferrin-Selenium-Ethanolamine (ITS-X) (Invitrogen, Carlsbad, Calif.). The viability of hepatocytes was determined using trypan blue dye exclusion, and those with higher than 85% viability were used. The medium was changed to DMEM with 1% fetal bovine serum after culturing for 4 hours. After starvation for 4 hours, the cells were exposed to ceramide. At the prescribed time points, cells were harvested and subjected to qPCR analysis and TG content detection.
as §1, §2

| Molecule | weight gain less than that of vehicle treated mice ([1]; Fxr^fl/fl mice) | weight gain vs vehicle ([1]; Fxr^ΔIE mice) | bile salt hydrolase (BSH) enzymatic activity in the feces [2] | liver weights (HFD-induced NAFLD model; Fxr^fl/fl mice, HFD) | hepatic lipid droplets (liver histology) (HFD-induced NAFLD model; Fxr^fl/fl mice, HFD 14 weeks (antibiotic) and 16 weeks (tempol)) | hepatic lipid (liver histology) (HFD-induced NAFLD model; Fxr^ΔIE mice, HFD) | hepatic triglyceride content (hepatic steatosis) (HFD-induced NAFLD model; Fxr^ΔIE mice, HFD) | liver weights (HFD-induced NAFLD model; HFD) | hepatic triglyceride (TG) contents decreased to (HFD-induced NAFLD model; HFD, relative to vehicle) [%] | hepatic lipid droplets (liver histology) (HFD-induced NAFLD model; tempol: HFD 16 weeks, antibiotic: HFD 7 weeks) | protein levels of mature nuclear SREBP1 and CIDEA in the liver (SREBP1c-CIDEA pathway; Fxr^ΔIE mice treated with tempol) | inflammation-related genes (Tlr2, Tlr4, Tlr9, Tnfα) mRNA in liver (SREBP1c-CIDEA pathway; HFD 7 weeks) | protein levels of mature nuclear SREBP1 and CIDEA in the liver (SREBP1c-CIDEA pathway; tempol-treated Fxr^fl/fl mice) | mRNA of fatty acid synthesis and TG formation genes (Srebp1c, Cidea, Elovl6, Dgat2) (primary hepatocytes; 16 hours, 2, 5, 10 μM ceramide) | mRNA of fatty acid β-oxidation genes (Cpt1, Acox1, Ehhadh, Acaa1a) (primary hepatocytes; 16 hours, 2, 5, 10 μM ceramide) | triglyceride contents in primary hepatocytes (primary hepatocytes; 24 hours, 2, 5, 10 μM ceramide) | protein levels of nuclear SREBP1-N and CIDEA (primary hepatocytes; ceramide 2 μM and 10 μM, 24 hours) |
| --- | --- | --- | --- | --- | --- | --- | --- | --- | --- | --- | --- | --- | --- | --- | --- | --- | --- |
| CC1(C)CC(O)CC(C)(C)N1[O] [tempol, 4-hydroxy-2,2,6,6,-tetramethylpiperidine-1-oxyl] | approximately 65% | insignificant difference in weight gain | significant downregulation | significantly reduced | decreased hepatic lipid droplets | no changes in hepatic lipid | did not alleviate hepatic steatosis | decreased | ~35 | significant reduction in hepatic lipid droplets | no decrease | comparable | significantly reduced | – | – | – | – |
| ceramide | – | – | – | – | – | – | – | – | – | – | – | – | – | significantly upregulated | not affected | significantly increased triglyceride contents | significantly induced |
